Test results published in patent US9113629B2, “4-amino-6-(4-substituted-phenyl)-picolinates and 6-amino-2-(4-substituted-phenyl)-pyrimidine-4-carboxylates and their use as herbicides” (DOW AGROSCIENCES LLC, priority 2013, dated 2015).

Tests used:
Type in all cases: in vivo
[1] = tested on: AMARE: redroot pigwseed (Amaranthus retroflexus); experiment: Post-emergent Test I herbicidal activity; settings: post-emergence, read-out: Visual Growth Reduction (%), AMARE; for pest or weed control at 4040 g/ha: 4.04 kg ai/ha; for pest or weed control at 4000 g/ha: 4 kg ai/ha
[2] = tested on: AVEFA: wild oats (Avena fatua); experiment: Post-emergent Test I herbicidal activity; settings: post-emergence, 336 h, read-out: Visual Growth Reduction (%) 14 Days After Application, AVEFA; for pest or weed control at 4040 g/ha: 4.04 kg ai/ha; for pest or weed control at 4000 g/ha: 4 kg ai/ha
[3] = tested on: ECHCG: barnyardgrass (Echinochloa crus-galli); experiment: Post-emergent Test I herbicidal activity; settings: post-emergence, 336 h, read-out: Visual Growth Reduction (%) 14 Days After Application, ECHCG; for pest or weed control at 4040 g/ha: 4.04 kg ai/ha; for pest or weed control at 4000 g/ha: 4 kg ai/ha
[4] = tested on: HELAN: sunflower (Helianthus annuus); experiment: Post-emergent Test I herbicidal activity; settings: post-emergence, 336 h, read-out: Visual Growth Reduction (%) 14 Days After Application, HELAN; for pest or weed control at 4040 g/ha: 4.04 kg ai/ha; for pest or weed control at 4000 g/ha: 4 kg ai/ha
[5] = tested on: IPOHE: ivyleaf morningglory (Ipomoea hederecea); experiment: Post-emergent Test I herbicidal activity; settings: post-emergence, 336 h, read-out: Visual Growth Reduction (%) 14 Days After Application, IPOHE; for pest or weed control at 4040 g/ha: 4.04 kg ai/ha; for pest or weed control at 4000 g/ha: 4 kg ai/ha
[6] = tested on: SETFA: giant foxtail (Setaria faberi); experiment: Post-emergent Test I herbicidal activity; settings: post-emergence, 336 h, read-out: Visual Growth Reduction (%) 14 Days After Application, SETFA; for pest or weed control at 4040 g/ha: 4.04 kg ai/ha; for pest or weed control at 4000 g/ha: 4 kg ai/ha
[7] = tested on: AMARE: redroot pigwseed (Amaranthus retroflexus); experiment: Pre-emergent Test I herbicidal activity; settings: pre-emergence, 336 h, read-out: Visual Growth Reduction (%) 14 Days After Application, AMARE; for pest or weed control at 4040 g/ha: 4.04 kg ai/ha; for pest or weed control at 4000 g/ha: 4 kg ai/ha
Summary of the method: (§1)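 Compound applied pre-emergence to seeded sandy loam, with water incorporation afterwards. Damage, or lack of emergence, was assessed visually against controls 14 days after treatment using a 0-100 scale.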

[8] = tested on: AVEFA: wild oats (Avena fatua); experiment: Pre-emergent Test I herbicidal activity; settings: pre-emergence, 336 h, read-out: Visual Growth Reduction (%) 14 Days After Application, AVEFA; for pest or weed control at 4040 g/ha: 4.04 kg ai/ha; for pest or weed control at 4000 g/ha: 4 kg ai/ha
Summary of the method: as §1

[9] = tested on: ECHCG: barnyardgrass (Echinochloa crus-galli); experiment: Pre-emergent Test I herbicidal activity; settings: pre-emergence, 336 h, read-out: Visual Growth Reduction (%) 14 Days After Application, ECHCG; for pest or weed control at 4040 g/ha: 4.04 kg ai/ha; for pest or weed control at 4000 g/ha: 4 kg ai/ha
Summary of the method: as §1

[10] = tested on: HELAN: sunflower (Helianthus annuus); experiment: Pre-emergent Test I herbicidal activity; settings: pre-emergence, 336 h, read-out: Visual Growth Reduction (%) 14 Days After Application, HELAN; for pest or weed control at 4040 g/ha: 4.04 kg ai/ha; for pest or weed control at 4000 g/ha: 4 kg ai/ha
Summary of the method: as §1

[11] = tested on: IPOHE: ivyleaf morningglory (Ipomoea hederecea); experiment: Pre-emergent Test I herbicidal activity; settings: pre-emergence, 336 h, read-out: Visual Growth Reduction (%) 14 Days After Application, IPOHE; for pest or weed control at 4040 g/ha: 4.04 kg ai/ha; for pest or weed control at 4000 g/ha: 4 kg ai/ha
Summary of the method: as §1

[12] = tested on: SETFA: giant foxtail (Setaria faberi); experiment: Pre-emergent Test I herbicidal activity; settings: pre-emergence, 336 h, read-out: Visual Growth Reduction (%) 14 Days After Application, SETFA; for pest or weed control at 4040 g/ha: 4.04 kg ai/ha; for pest or weed control at 4000 g/ha: 4 kg ai/ha
Summary of the method: as §1

COC(=O)c1nc(-c2ccc(Br)c(F)c2F)cc(N)c1Cl [Compound 114, methyl 4-amino-6-(4-bromo-2,3-difluorophenyl)-3-chloropicolinate]
pest or weed control at 3920 g/ha ([1]; 3.92 kg ai/ha): 95 to 100% | pest or weed control at 3920 g/ha ([2]; 3.92 kg ai/ha): 0 to 29% | pest or weed control at 3920 g/ha ([3]; 3.92 kg ai/ha): 95 to 100% | pest or weed control at 3920 g/ha ([4]; 3.92 kg ai/ha): 95 to 100% | pest or weed control at 3920 g/ha ([5]; 3.92 kg ai/ha): 85 to 94% | pest or weed control at 3920 g/ha ([6]; 3.92 kg ai/ha): 75 to 84% | pest or weed control at 3920 g/ha ([7]; 3.92 kg ai/ha): 95 to 100% | pest or weed control at 3920 g/ha ([8]; 3.92 kg ai/ha): 95 to 100% | pest or weed control at 3920 g/ha ([9]; 3.92 kg ai/ha): 75 to 84% | pest or weed control at 3920 g/ha ([10]; 3.92 kg ai/ha): 95 to 100% | pest or weed control at 3920 g/ha ([11]; 3.92 kg ai/ha): 95 to 100% | pest or weed control at 3920 g/ha ([12]; 3.92 kg ai/ha): 85 to 94%

COC(=O)c1nc(-c2ccc(C#N)c(F)c2)c(F)c(N)c1Cl [Compound 135, methyl 4-amino-3-chloro-6-(4-cyano-3-fluorophenyl)-5-fluoropicolinate]
pest or weed control at 4040 g/ha [1]: 95 to 100% | pest or weed control at 4040 g/ha [2]: 60 to 74% | pest or weed control at 4040 g/ha [3]: 95 to 100% | pest or weed control at 4040 g/ha [4]: 95 to 100% | pest or weed control at 4040 g/ha [5]: 85 to 94% | pest or weed control at 4040 g/ha [6]: 75 to 84% | pest or weed control at 4040 g/ha [7]: 95 to 100% | pest or weed control at 4040 g/ha [8]: 30 to 44% | pest or weed control at 4040 g/ha [9]: 30 to 44% | pest or weed control at 4040 g/ha [10]: 95 to 100% | pest or weed control at 4040 g/ha [11]: 95 to 100% | pest or weed control at 4040 g/ha [12]: 30 to 44%

COC(=O)c1nc(-c2ccc(Br)cc2)c(F)c(N)c1Cl [Compound 138, Methyl 4-amino-6-(4-bromophenyl)-3-chloro-5-fluoropicolinate]
pest or weed control at 4000 g/ha [1]: 95 to 100% | pest or weed control at 4000 g/ha [2]: 75 to 84% | pest or weed control at 4000 g/ha [3]: 95 to 100% | pest or weed control at 4000 g/ha [4]: 95 to 100% | pest or weed control at 4000 g/ha [5]: 95 to 100% | pest or weed control at 4000 g/ha [6]: 95 to 100% | pest or weed control at 4000 g/ha [7]: 95 to 100% | pest or weed control at 4000 g/ha [8]: 95 to 100% | pest or weed control at 4000 g/ha [9]: 95 to 100% | pest or weed control at 4000 g/ha [10]: 95 to 100% | pest or weed control at 4000 g/ha [11]: 95 to 100% | pest or weed control at 4000 g/ha [12]: 95 to 100%

N#Cc1ccc(-c2nc(C(=O)O)c(Cl)c(N)c2F)cc1F [Compound 156]
pest or weed control at 4040 g/ha [1]: 95 to 100% | pest or weed control at 4040 g/ha [2]: 75 to 84% | pest or weed control at 4040 g/ha [3]: 95 to 100% | pest or weed control at 4040 g/ha [4]: 95 to 100% | pest or weed control at 4040 g/ha [5]: 95 to 100% | pest or weed control at 4040 g/ha [6]: 85 to 94% | pest or weed control at 4040 g/ha [7]: 95 to 100% | pest or weed control at 4040 g/ha [8]: 75 to 84% | pest or weed control at 4040 g/ha [9]: 95 to 100% | pest or weed control at 4040 g/ha [10]: 95 to 100% | pest or weed control at 4040 g/ha [11]: 95 to 100% | pest or weed control at 4040 g/ha [12]: 95 to 100%

COC(=O)c1nc(-c2ccc(C(F)F)cc2)c(F)c(N)c1Cl [Compound 209]
pest or weed control at 4000 g/ha [1]: 95 to 100% | pest or weed control at 4000 g/ha [2]: 85 to 94% | pest or weed control at 4000 g/ha [3]: 95 to 100% | pest or weed control at 4000 g/ha [4]: 95 to 100% | pest or weed control at 4000 g/ha [5]: 85 to 94% | pest or weed control at 4000 g/ha [6]: 95 to 100% | pest or weed control at 4000 g/ha [7]: 95 to 100% | pest or weed control at 4000 g/ha [8]: 95 to 100% | pest or weed control at 4000 g/ha [9]: 95 to 100% | pest or weed control at 4000 g/ha [10]: 95 to 100% | pest or weed control at 4000 g/ha [11]: 95 to 100% | pest or weed control at 4000 g/ha [12]: 95 to 100%
